Measurements: publication PMC9086285, “Catalytic Features and Thermal Adaptation Mechanisms of a Deep Sea Bacterial Cutinase-Type Poly(Ethylene Terephthalate) Hydrolase” (Frontiers in Bioengineering and Biotechnology, 2022)

Columns and labels:
ICCG = biological target: T1, ICCG (unidentified prokaryotic organism, UniProt G9BY57, Y127G/D238C/F243I/S283C); test: inhibition of mp-PET hydrolysis, HPLC of products; format: biochemical; conditions: 1 mM MHET, mp-PET substrate, 40°C, pH 8.5, 10 mM CaCl2, 72 h; product inhibition
T1 construct: quadruple variant of LCC; only D238C/S283C given, the other two changes (F243I, Y127G) known from Tournier et al. 2020; expression construct not described; PDB 6THT given as the ICCG structure used for modelling
T1 sequence (G9BY57 36-293 Y127G/D238C/F243I/S283C): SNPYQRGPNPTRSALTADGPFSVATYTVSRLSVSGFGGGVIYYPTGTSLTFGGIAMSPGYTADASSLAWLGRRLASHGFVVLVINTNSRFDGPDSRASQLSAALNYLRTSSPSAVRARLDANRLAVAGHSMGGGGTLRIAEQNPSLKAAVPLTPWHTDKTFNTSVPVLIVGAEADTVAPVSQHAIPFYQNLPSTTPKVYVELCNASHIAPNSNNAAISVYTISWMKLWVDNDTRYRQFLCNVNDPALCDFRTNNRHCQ

IsPETase = biological target: T2, IsPETase (Pseudideonella sakaiensis, UniProt A0A0K8P6T7); test: inhibition of mp-PET hydrolysis, HPLC of products; format: biochemical; conditions: 1 mM MHET, mp-PET substrate, 40°C, pH 8.5, 10 mM CaCl2, 72 h; product inhibition
T2 construct: gene ISF6_4831; purified enzyme; expression construct not described
T2 sequence (A0A0K8P6T7 28-290): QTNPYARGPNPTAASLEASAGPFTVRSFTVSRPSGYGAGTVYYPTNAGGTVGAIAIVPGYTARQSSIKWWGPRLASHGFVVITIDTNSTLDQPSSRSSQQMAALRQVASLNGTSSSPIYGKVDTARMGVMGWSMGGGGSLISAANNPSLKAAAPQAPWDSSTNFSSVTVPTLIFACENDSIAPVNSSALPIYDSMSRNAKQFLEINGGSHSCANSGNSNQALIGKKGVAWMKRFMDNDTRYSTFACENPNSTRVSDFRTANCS

O=C(O)c1ccc(C(=O)OCCO)cc1 [MHET]
inhibition at 1 mM (ICCG): in the presence of MHET, significant inhibitory effects were detected toward IsPETase and ICCG | inhibition at 1 mM (IsPETase): in the presence of MHET, significant inhibitory effects were detected toward IsPETase and ICCG
